Test results taken from PMC10987949, “Inhibition of HIV-1 release by ADAM metalloproteinase inhibitors” (Frontiers in Microbiology, 2024).

Tests used:
HIV-1LAI [1] = assay: HIV-1LAI infection of CD8-depleted PBMC; type: cell-based; conditions: 100 μM
Description: The use of healthy human peripheral blood mononuclear cells (PBMC) is approved by the Department of Transfusion Medicine at the Clinical Center of National Institutes of Health. The use of PBMC from HIV-1 infected individuals for the study was approved under protocol #02-I-0202 by the Institutional Review Board (IRB) of National Institutes of Health with written informed consent from all donors. Peripheral blood mononuclear cells (PBMCs) from anonymous healthy donors were isolated by Ficoll-Paque gradient, and cultured in RPMI 1640 supplemented with 10% FBS, 1%Penicillin/streptomycin, 1% HEPES buffer and 20 U/mL IL-2 (culture media); and stimulated with 0.2 μg/mL anti-CD3 antibody (okt3) for 2 days. CD8^+ T cells were depleted prior to infection using the Stemcell CD8 positive selection kit according to manufacturer’s instructions. […] The infections were proceeded with or without inhibitors for 6 days or otherwise specified number of days and then analyzed by FACS staining using fluorescent labeled CD4-BV510, CD62L-APC and CD3-PEC7 antibodies (BD Biosciences). […] Replication competent HIV-1 viruses were obtained from the NIH AIDS Reagent Program^4, and expanded by infecting activated CD8-depleted PBMCs, and TCID50 was determined by p24 ELISA.

recombinant ADAM17 = biological target: T1, recombinant ADAM17 (Homo sapiens, UniProt P78536); assay: Kinetic cleavage of fluorogenic TNF-α peptide ES003 by recombinant ADAM17; type: biochemical; conditions: for Ki: ES003 substrate, 4-h time point, non-linear regression, read-out: Inhibition constant Ki ADAM17
T1 construct: purchased R&D systems, Inc
T1 sequence (P78536 215-824): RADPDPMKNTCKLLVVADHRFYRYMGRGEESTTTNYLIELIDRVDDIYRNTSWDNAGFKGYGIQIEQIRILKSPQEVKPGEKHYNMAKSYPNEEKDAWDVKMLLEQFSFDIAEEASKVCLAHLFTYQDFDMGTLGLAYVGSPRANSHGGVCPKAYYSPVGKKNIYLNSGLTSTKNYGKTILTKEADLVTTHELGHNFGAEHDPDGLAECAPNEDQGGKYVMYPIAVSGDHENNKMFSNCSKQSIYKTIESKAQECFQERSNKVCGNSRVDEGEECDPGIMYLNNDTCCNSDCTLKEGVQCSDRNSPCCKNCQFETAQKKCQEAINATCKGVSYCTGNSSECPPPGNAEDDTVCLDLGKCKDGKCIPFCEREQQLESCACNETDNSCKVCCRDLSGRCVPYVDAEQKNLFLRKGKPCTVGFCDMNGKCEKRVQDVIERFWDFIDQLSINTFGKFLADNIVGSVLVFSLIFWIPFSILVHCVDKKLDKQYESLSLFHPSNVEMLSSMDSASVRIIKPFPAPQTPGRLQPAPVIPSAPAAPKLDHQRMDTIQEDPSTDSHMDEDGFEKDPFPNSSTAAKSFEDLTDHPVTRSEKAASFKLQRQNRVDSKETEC
Description: A fluorescence based enzymatic assay was used to measure the cleavage of fluorogenic TNF-α and L-selectin (CD62L) peptides by either recombinant ADAMs or PBMC from healthy donors. The fluorogenic substrate, synthesized by Biomatik^3, was a Dabcyl (4-(4-dimethylaminophenylazo)benzoyl)- and Edans (5-[(2-aminoethyl)amino]naphthalene-1-sulfonic acid)- conjugated 12 amino acid peptide: Dabcyl-[…]-Edans that corresponds to the extracellular membrane proximal region of CD62L. […] The cleavage was measured in a kinetic assay every 3 min for 4 h in black 96-well plates using a Synergy_h1 fluorescent plate reader (BioTek) with 340 nm excitation and 490 nm emission wavelengths. […] PBMC were stimulated with anti-CD3 antibody for 2–4 days as described above.
96-well plate with data recorded every 3 minutes for 4 hours using a Synergy_h1 fluorescent plate reader. Each enzymatic reaction contained 50 -200 ng
Figure 2B and 2C bar diagrams are generated using the
data points at 4 hour time point of the enzymatic cleavages.

[2] = biological target: T2, recombinant HIV-1 protease (Human immunodeficiency virus type 1 group M subtype B, UniProt P04585); assay: HIV-1 protease fluorogenic substrate cleavage; type: biochemical; conditions: 100nM saquinavir or nelfinavir; MMP inhibitors up to 10uM
T2 construct: recombinant HIV-1 protease; purchased Sigma-Aldrich SRP2151
Description: HIV-1 protease enzymatic activity was assayed in black 96-well plates at room temperature using a Synergy_h1 fluorescent plate reader with 340 nm excitation and 490 nm emission wavelengths (BioTek). Each enzymatic reaction consisted of a mixture of 100 ng of recombinant HIV-1 protease (Sigma-Aldrich catalog SRP2151), 5 μM concentration of a fluorogenic substrate Arg-Glu(EDANS)-[…]DABCYL)-Arg (Sigma-aldrich catalog H6660), and various concentrations of inhibitor compounds in 100 μL of assay buffer (0.15 M sodium chloride, 1.0 mM EDTA, 1.0 mM DTT, 0.1 M sodium acetate, pH 5.0). The fluorescence of the cleavage reaction was continuously read at every 30 s for a total of 40 min.

TNFα release = TNFα release ELISA, stimulated CD4 T cells; type: cell-based, human; conditions: PHA or anti-CD3 stimulated CD4 T cells
Description: PBMC from de-identified healthy donors were obtained with informed consent from the Department of Transfusion Medicine, National Institutes of Health under Biological reagent Registry RD-14-IX-12 approved by NIH biological safety board. CD8-depleted PBMCs, either stimulated or non-stimulated with 10 μg/mL phytohaemagglutinin (PHA) or anti-CD3 antibody (with or without conjugated beads), were plated at 2×10^6 cells/ml in 48 well plates in RPMI 1640 + 10%FBS (R10) to a final volume of 1 mL in each well. IL-2 was added at a final concentration of 20 U/mL. CD3 antibody okt3 was used at ~0.2 μg/mL final concentration. Compounds were prepared in appropriate solvents according to the manufacturer’s instructions, diluted to working concentrations using RPMI 1640 + 10%FBS (R10), and added to the cell cultures for 6–24 h for CD62L shedding, and 48 h for TNF-α release. Supernatants were collected and assessed using either the CD62L or TNF-α Duo Set ELISA kit according to manufacturer’s instructions (R&D Systems, Inc.). The viability of cells treated with compounds was assessed by acridine orange / propidiom iodide (AO/PI Logosbio catalog F23001) staining using Luna-FL cell counter following the manufacture’s instruction.^2

HIV-1LAI [3] = assay: TEM of immunogold labeled CD62L on HIV-1LAI infected PBMC; type: cell-based
Description: For immunogold labeling, ~10^6 cells were washed with 2 mL PBS, gently centrifuged at 250 g for 5 min, resuspended in 100 μL of labeling buffer (PBS with 1% BSA), and incubated with 10 μg of mouse anti-human CD62L (clone FMC46, Thermofisher) for 1 h on ice. After removal of the primary antibody and wash, cells were incubated with 10 μg of secondary goat anti-mouse IgG H&L conjugated to 10 nm gold nanoparticles (Electron Microscopy Sciences) for 1 h on ice, then washed and fixed in 2.5% glutaraldehyde with 0.1 M sodium cacodylate at pH 7.4. Specimens for transmission electron microscopy (TEM) were fixed with 2.5% glutaraldehyde in 0.1 M Sorenson’s buffer. Samples were post-fixed 1 h with 0.5% osmium tetroxide/0.8% potassium ferricyanide, 1 h with 1% tannic acid and overnight with 1% uranyl acetate at 4°C. Samples were dehydrated with a graded ethanol series and embedded in Spurr’s resin. Thin sections were cut with a Leica UCT ultramicrotome (Vienna, Austria) stained with 1% uranyl acetate and Reynold’s lead citrate prior to viewing at 80 kV on a Hitachi 7500 transmission electron microscope (Hitachi-High Technologies, Tokyo, Japan). Approximately 100 images were acquired with an AMT digital camera system (AMT, Chazy, NY) from each sample on sections containing HIV virions. HIV virions are identified as ~100 nm sized particles with visible membrane enclosed capsid.

HIV = tested on: HIV; parameters: method as in Kononchik et al., 2018; conditions: ref Kononchik et al., 2018; cited from earlier work

Structure (SMILES)	effect on X4 tropic HIV-1LAI infection (HIV-1LAI [1])	concentrations inhibiting ADAM17 enzymatic activity (recombinant ADAM17)	inhibition of ADAM17 cleavage of ES003 (recombinant ADAM17; 2 μM compound)	Ki (recombinant ADAM17)	effect on HIV protease cleavage of fluorogenic substrate [2]	effect on TNFα release (TNFα release)	gold particles bound to cell surface virions (HIV-1LAI [3]; 50 μM, count in TEM images)	gold particles bound to released virions (HIV-1LAI [3]; 50 μM, count in TEM images)	fraction of virion-associated gold particles on CD62L-tethered (budding) virions (HIV-1LAI [3]; in presence of compound, DMSO 45%)	fraction of virion-associated gold particles on released virions (HIV-1LAI [3]; in presence of compound, DMSO 55%)	effect on HIV cell-to-cell transfer infections (HIV)
CC1(C)SCCN(S(=O)(=O)c2ccc(Oc3ccncc3)cc2)[C@H]1C(=O)NO [prinomastat]	inhibited the X4 tropic HIV-1LAI infections	20 to 50 nM	inhibited both ADAM10 and 17	0.048 ± 0.036 µM	none of the MMP inhibitors, including BB-94, prinomastat, GM6001 and DMDP, inhibited the activity of HIV protease						
CNC(=O)[C@H](Cc1ccccc1)NC(=O)[C@H](CC(C)C)[C@H](CSc1cccs1)C(=O)NO [BB-94, Batimastat]	inhibited the X4 tropic HIV-1LAI infections				none of the MMP inhibitors, including BB-94, prinomastat, GM6001 and DMDP, inhibited the activity of HIV protease	inhibited	63	17	79%	21%	effectively suppressed HIV cell-to-cell transfer infections
CNC(=O)[C@@H](NC(=O)[C@H](CCCc1ccccc1)[C@H](C)N(O)C=O)C(C)(C)C [GI254023X]				3.6 ± 0.38 µM							
